In US20230077280A1, “THERAPEUTIC COMPOUNDS FOR METHODS OF USE IN INSULIN RESISTANCE” (Baylor College of Medicine, priority 2019, published 2023):

Experiments:
Fbxo40 [1] = assay: Western blotting of tibialis anterior muscle lysates of CKD mice: Fbxo40 protein; assay type: in vivo; conditions: western blotting (FIGS. 2I and 2J)
Protocol: (§1) Animals: The experimental procedures were approved by the Institutional Animal Care and Use Committee of Baylor College of Medicine. Wild type (WT) mice (C57BL/6) were purchased from Jackson lab (Bar Harbor, Me.). To create a model of CKD, 8-10 week old mice underwent subtotal nephrectomy or sham-operated control as described; ^31 CKD mice with a BUN 80 mg/dl were studied. CKD or sham-operated control mice were assigned to two subgroups: one subgroup was injected intraperitoneally with TTI-101 (12.5 mg/kg body weight in D5W) every other day for 2 weeks, while the other subgroup received an identical volume of D5W for 2 weeks. Antibodies: The primary antibodies of p-Akt (Ser473) (D9E) #4060, Akt (40D4)#2920, p-Stat3 (Tyr705) ([…])#9145, Stat3(124H6)#9139 were from Cell Signaling technology (Beverly, Mass., USA). Antibody against Fbxo40 #ab190688 was from Abcam (Cambridge, Mass., USA). Antibody against IRS1 #611395 was obtained from BD Biosciences (San Jose, Calif.). Anti-GAPDH#PA1-987 was from Thermo Fisher Scientific. The antibody was verified by the molecular size of recognized proteins.

mice with CKD [2] = assay: CKD mice (subtotal nephrectomy): body weight, fasting blood glucose, glucose tolerance test; assay type: in vivo
Protocol: Animals: The experimental procedures were approved by the Institutional Animal Care and Use Committee of Baylor College of Medicine. Wild type (WT) mice (C57BL/6) were purchased from Jackson lab (Bar Harbor, Me.). To create a model of CKD, 8-10 week old mice underwent subtotal nephrectomy or sham-operated control as described; ^31 CKD mice with a BUN ˜80 mg/dl were studied. CKD or sham-operated control mice were assigned to two subgroups: one subgroup was injected intraperitoneally with TTI-101 (12.5 mg/kg body weight in D5W) every other day for 2 weeks, while the other subgroup received an identical volume of D5W for 2 weeks. For glucose tolerance tests (GTT), mice with free access to water were fasted for 16 hrs and then injected intraperitoneally (i.p.) with […] and tail vein blood was collected at 0, 30, 60 and 120 min intervals to measure blood glucose concentrations using a True Track Glucometer. For insulin tolerance test (ITT), mice were fasted for 4 hrs, then were injected i.p. with 2 units/kg insulin; tail vein blood was collected after 0, 30, 60 and 120 min to measure blood glucose concentrations. Changes in blood glucose were analyzed as the “area under curve” (AUC) method using Statstodo program (http://www.statstodo.com/AUC_Exp.php).

Fbxo40 [3] = assay: qPCR of Fbxo40 mRNA in TA muscles of CKD mice; assay type: in vivo; conditions: vs D5W diluent (FIG. 2G)
Protocol: (§2) Animals: The experimental procedures were approved by the Institutional Animal Care and Use Committee of Baylor College of Medicine. Wild type (WT) mice (C57BL/6) were purchased from Jackson lab (Bar Harbor, Me.). To create a model of CKD, 8-10 week old mice underwent subtotal nephrectomy or sham-operated control as described; ^31 CKD mice with a BUN ˜80 mg/dl were studied. CKD or sham-operated control mice were assigned to two subgroups: one subgroup was injected intraperitoneally with TTI-101 (12.5 mg/kg body weight in D5W) every other day for 2 weeks, while the other subgroup received an identical volume of D5W for 2 weeks.
(§3) RNA extraction and quantitative real-time PCR (qPCR): RNAs were isolated using the RNeasy kit (Qiagen, Valencia, Calif.) as instructed by the company. RT-PCR was performed to obtain relative gene expressions by calculating cycle threshold (Ct) values using GAPDH as an internal control (relative expression=2(sample Ct−GAPDH Ct)).^35 Sequences of primers will be provided upon request.

p-Akt [4] = assay: Western blotting of gastrocnemius muscle lysates of CKD mice: p-Akt; assay type: in vivo; conditions: 12.5 mg/kg i.p. every other day for 2 weeks, western blotting (FIG. 1D)
Protocol: as §1

mice with CKD [5] = conditions: earlier experiments (refs 33, 34); cited from earlier work
IRS1 [6] = assay: Western blotting of muscle lysates of HFD mice: IRS1; assay type: in vivo; conditions: 12.5 mg/kg i.p. every other day for 4 weeks, vs diluent (FIG. 3J)
Protocol: (§4) Another model was generated of insulin resistance by feeding wild type mice a high fat diet (HFD: 58% kcal from fat, Research Diets, New Brunswick, N.J.) for 12 weeks while control mice were fed the regular diet (RD: 11% kcal from fat). To study the effect of p-Stat3 on insulin resistance, HFD-fed mice were randomly assigned to two subgroups: one subgroup was injected intraperitoneally (i.p.) with TTI-101 (12.5 mg/kg body weight in D5W) every other day for 4 weeks, while the other subgroup received an identical volume of D5W for 4 weeks. Antibodies: The primary antibodies of p-Akt ([…]) (D9E) #4060, Akt (40D4)#2920, p-Stat3 ([…]) (D3A7)#9145, Stat3(124H6)#9139 were from Cell Signaling technology (Beverly, Mass., USA). Antibody against Fbxo40 #ab190688 was from Abcam (Cambridge, Mass., USA). Antibody against IRS1 #611395 was obtained from BD Biosciences (San Jose, Calif.). Anti-GAPDH#PA1-987 was from Thermo Fisher Scientific. The antibody was verified by the molecular size of recognized proteins.

HFD-fed mice = assay: High fat diet (HFD) mice: fasting blood glucose, glucose tolerance test, insulin tolerance test; assay type: in vivo; conditions: mice fed HFD 12 weeks
Protocol: Another model was generated of insulin resistance by feeding wild type mice a high fat diet (HFD: 58% kcal from fat, Research Diets, New Brunswick, N.J.) for 12 weeks while control mice were fed the regular diet (RD: 11% kcal from fat). To study the effect of p-Stat3 on insulin resistance, HFD-fed mice were randomly assigned to two subgroups: one subgroup was injected intraperitoneally (i.p.) with TTI-101 (12.5 mg/kg body weight in D5W) every other day for 4 weeks, while the other subgroup received an identical volume of D5W for 4 weeks. For glucose tolerance tests (GTT), mice with free access to water were fasted for 16 hrs and then injected intraperitoneally (i.p.) with […] and tail vein blood was collected at 0, 30, 60 and 120 min intervals to measure blood glucose concentrations using a True Track Glucometer. For insulin tolerance test (ITT), mice were fasted for 4 hrs, then were injected i.p. with 2 units/kg insulin; tail vein blood was collected after 0, 30, 60 and 120 min to measure blood glucose concentrations. Changes in blood glucose were analyzed as the “area under curve” (AUC) method using Statstodo program (http://www.statstodo.com/AUC_Exp.php).

p-Stat3 = assay: Western blotting of gastrocnemius muscle lysates of CKD mice: p-Stat3; assay type: in vivo; conditions: 12.5 mg/kg i.p. every other day for 2 weeks, western blotting (FIG. 1D)
Protocol: Animals: The experimental procedures were approved by the Institutional Animal Care and Use Committee of Baylor College of Medicine. Wild type (WT) mice (C57BL/6) were purchased from Jackson lab (Bar Harbor, Me.). To create a model of CKD, 8-10 week old mice underwent subtotal nephrectomy or sham-operated control as described; ^31 CKD mice with a BUN 80 mg/dl were studied. […] Antibodies: The primary antibodies of p-Akt (Ser473) (D9E) #4060, Akt (40D4)#2920, p-Stat3 (Tyr705) ([MUT])#9145, Stat3(124H6)#9139 were from Cell Signaling technology (Beverly, Mass., USA). Antibody against Fbxo40 #ab190688 was from Abcam (Cambridge, Mass., USA). Antibody against IRS1 #611395 was obtained from BD Biosciences (San Jose, Calif.). Anti-GAPDH#PA1-987 was from Thermo Fisher Scientific. The antibody was verified by the molecular size of recognized proteins.

IRS1 [7] = assay: qPCR of IRS1 mRNA in TA muscles of CKD mice; assay type: in vivo; conditions: vs D5W diluent (FIG. 2H)
Protocol: as §2, §3

p-Akt [8] = assay: Western blotting of muscle lysates of HFD mice: p-Akt; assay type: in vivo; conditions: 12.5 mg/kg i.p. every other day for 4 weeks, vs diluent (FIG. 3J)
Protocol: as §4

COc1ccc(S(=O)(=O)Nc2cc(-c3c(O)ccc4ccccc34)c(O)c3ccccc23)cc1 [TTI-101, N-(1′,2-dihydroxy-1,2′-binaphthalen-4′-yl)-4-methoxybenzenesulfonamide]
Fbxo40 protein in muscles (Fbxo40 [1]): significantly decreased
glucose tolerance (mice with CKD [2]; 12.5 mg/kg i.p. every other day for 2 weeks, vs D5W diluent (FIG. 1C)): significantly improved
body weight (mice with CKD [2]; 12.5 mg/kg i.p. every other day, after 2 weeks of treatment, vs D5W diluent (FIG. 1A)): increased
blood glucose levels (fasting, 16 hr) (mice with CKD [2]; 12.5 mg/kg i.p. every other day, after 2 weeks of treatment, vs D5W diluent (FIG. 1B)): decreased
Fbxo40 mRNA in muscles (Fbxo40 [3]): suppression
p-Akt in muscle lysates (p-Akt [4]): increasing
body weights of mice (mice with CKD [5]): increases
IRS1 levels in muscles (IRS1 [6]): higher levels
fasting values of blood glucose (HFD-fed mice; then 12.5 mg/kg i.p. every other day for 4 weeks with HFD continued, vs diluent (FIG. 3G)): decreased
glucose tolerance (HFD-fed mice; then 12.5 mg/kg i.p. every other day for 4 weeks, vs diluent (FIG. 3H)): improved
insulin tolerance (HFD-fed mice; then 12.5 mg/kg i.p. every other day for 4 weeks, vs diluent (FIG. 3I)): improved
p-Stat3 in muscle lysates (p-Stat3): suppressed
IRS1 mRNAs in muscles (IRS1 [7]): increased
p-Akt levels in muscles (p-Akt [8]): higher levels
